Measurements as given in patent publication US12584904B2, “Methods for monitoring physiological status of a body organ” (BioCrine AB, priority 2012, dated 2026).
Entries after “also recorded” stand apart in the source; their conditions may differ.

Key:
ob/ob mice [1] = assay: Intraperitoneal glucose tolerance test after leptin treatment; assay type: in vivo, mouse
Description: (§1) Having witnessed the behavior of individual islets in response to food over-consumption and insulin resistance, we next questioned if this growth could be refrained or even reversed by treating the ob/ob mice with leptin. Mice were injected intraperitoneally every day between 3 and 4 months of age. The physiological effects of this treatment were monitored regularly using different parameters.
(§2) Body weight and blood glucose levels were measured in a minimum of 7 mice. Glucose concentrations were obtained using Accu-Chek™ Aviva monitoring system (Roche). Glucose tolerance tests were performed by intraperitoneal injection of 2 mg glucose per gram body weight in mice fasted for 16 hours (n≥5). Plasma insulin concentrations from a minimum of 3 mice per condition were measured using mouse insulin ELISA plates (Mercodia). Leptin treatment was performed by daily intraperitoneal injections of 1.5 μg/g body weight of recombinant human leptin (Amylin Pharmaceuticals), and sham treatment was performed by intraperitoneal injection of water instead of leptin.

[2] = system: beta cells of ob/ob mouse islets; assay: Immunohistochemistry of transplanted eye and pancreas sections after leptin treatment; assay type: in vivo; conditions: for proliferation of beta cells (insulin and Ki67 staining): end of leptin treatment
Description: Dissected tissues were briefly rinsed with PBS, fixed for 48 h at room temperature using formalin, and dehydrated and embedded in paraffin. Five-micron thick sections mounted on precoated microscope slides were dewaxed by xylene and progressively rehydrated before processing. Insulin was stained using chicken anti-insulin (1:200 dilution, Abcam) followed by goat anti-chicken Alexa™ 488 (1:1000 dilution, Invitrogen) antibodies; blood vessels were stained using rat anti-mouse CD31 (1:50 dilution, BD Pharmingen), followed by incubation of biotinylated goat anti-rat (5 μg/ml, Vector Labs) and amplification with HRP-streptavidin/Alexa™ 647-tyramide (Invitrogen); proliferation was assessed by using mouse anti-human Ki67 (1:50 dilution, Novocastra) together with M.O.M. biotinylated anti-mouse IgG (Vector Labs), and amplified using HRP-streptavidin/Alexa 647-tyramide. Nuclei were stained and slides were preserved by cover glass mounting using ProLong™ Gold Antifade Reagent with DAPI (Invitrogen). Slides were imaged using a BD Pathway 855 system (BD Biosciences). Insulin, CD31, Ki67 and DAPI stainings were imaged using a 20×/0.75NA UApo/340 Olympus objective, and overviews of pancreatic sections stained by hematoxylin/eosin were obtained by montage capture mode using a 4×/0.16NA UPlan SApo Olympus objective.
AutoQuant X2 (Media Cybernetics) was used for blind deconvolution of all in vivo confocal images before image analysis. Islet volume was analyzed based on the backscatter signal channel, using Matlab™ and the Image Processing Toolbox (Mathworks). The islet “equatorial volume”, i.e. the volume from the top of the islet down to the calculated equator, was used to represent the volume and calculate islet growth. We analyzed a minimum of 3 islet grafts per animal to determine islet growth, with a minimum of 3 mice per category. Individual vessel segments were identified at different imaging time points and their diameter measured using Volocity™ (Perkin Elmer). We established image analysis protocols in Volocity™ for automated analysis of histological sections. […]

[3] = system: islet grafts in the anterior chamber of the eye of ob/ob mice; assay: Longitudinal in vivo confocal imaging of intraocular islet grafts under leptin treatment; set-up: species or system mouse
From the text: (§3) Islet grafts in mice were imaged in vivo at specific time points after transplantation. We used an upright laser scanning confocal microscope based on TCS-SP2-AOBS (Leica) with a long-distance water-dipping objective (Leica HXC-APO 10×/0.30NA), and a custom-built stereotaxic head holder allowing to position the mouse eye containing the engrafted islets towards the objective. Viscotears (Novartis) was used as immersion liquid between the eye and the objective, and isoflurane was used to anesthetize the mice during in vivo imaging. Imaging of islet morphology was done by laser illumination at 633 nm, and collection of backscattered light at the same wavelength.
Islets were isolated from female donor mice and transplanted into the anterior chamber of the eye of male recipients, using a previously described technique (2). We anesthetized mice using isoflurane (Baxter), and approximately 10-20 islets were transplanted into the anterior chamber of the mouse eye. Islets used for transplantation were selected to be of similar size for each experiment, independent of the mouse genotype. The mice were injected subcutaneously with Temgesic™ (Schering-Plough) for postoperative analgesia.
as §3, with “transplantation as previously described (2).” for “transplantation.”, “Viscotears™” for “Viscotears”, “wavelength. For visualization of blood vessels we injected 100 μl of a solution containing 2.5 mg/ml of 500 kDa FITC-labeled dextran (Invitrogen) into the tail vein, and imaged fluorescence using 496 nm excitation wavelength. Scanning speed and laser intensities were adjusted to avoid any cellular damage to the mouse eye or islet graft.” for “wavelength.”
AutoQuant X2 (Media Cybernetics) was used for blind deconvolution of all in vivo confocal images before image analysis. Islet volume was analyzed based on the backscatter signal channel, using Matlab™ and the Image Processing Toolbox (Mathworks). The islet “equatorial volume”, i.e. the volume from the top of the islet down to the calculated equator, was used to represent the volume and calculate islet growth. We analyzed a minimum of 3 islet grafts per animal to determine islet growth, with a minimum of 3 mice per category. Individual vessel segments were identified at different imaging time points and their diameter measured using Volocity™ (Perkin Elmer). We established image analysis protocols in Volocity™ for automated analysis of histological sections. The average beta cell section area was obtained by dividing the insulin-stained area by the total number of DAPI-stained nuclei enclosed in this area (minimum of 1000 cells per tissue). Beta cell proliferation rate was obtained by counting Ki67-positive nuclei and dividing by the total number of DAPI-stained nuclei in insulin-positive cells (minimum of 10000 cells per transplanted eye or pancreas). Volocity™ was used for image display and Photoshop CS5 (Adobe) for image assembly.

ob/ob mice [4] = assay: Physiological measurements during leptin treatment of ob/ob mice; assay type: in vivo, mouse
Description: as §1
Leptin treatment was performed by daily intraperitoneal injections of 1.5 μg/g body weight of recombinant human leptin (Amylin Pharmaceuticals), and sham treatment was performed by intraperitoneal injection of water instead of leptin.
as §2

[5] = daily i.p. leptin 1.5 μg/g, during treatment

## leptin: recombinant human leptin (Amylin Pharmaceuticals), hormone encoded by the ob gene
ob/ob mice [1]; ob/ob mice at end of treatment period, 2 mg glucose/g i.p., 16 h fasted
  glucose handling in intraperitoneal glucose tolerance test (glucose excursions, AUC): normalized; also recorded: glucose excursions similar to those obtained from age-matched control mice
ob/ob mice [1]; ob/ob mice, end of leptin treatment
  insulin sensitivity: beneficial impact
[2]; engrafted islets (transplanted eye)
  proliferation of beta cells (insulin and Ki67 staining): attenuated; also recorded: virtually abolished
[2]; following leptin treatment, transplanted or endogenous pancreatic islets, versus age-matched untreated control mice
  average beta cell size: no significant difference compared to age-matched untreated control mice
[2]; in situ pancreatic islets
  proliferation of beta cells (insulin and Ki67 staining): attenuated; also recorded: virtually abolished
[3]; ob/ob mice, after end of leptin or sham treatment
  islet growth after the end of treatment: no difference in islet growth
[3]; ob/ob mice, during leptin treatment versus sham treatment
  islet growth (islet volume) of islet transplants: reversal of islet growth; also recorded: abolished and partially reversed
[3]; ob/ob mice, early stage after leptin treatment
  angiogenesis in the islet grafts: could observe angiogenesis
[3]; ob/ob mice, leptin treatment, dextran-FITC imaging
  vessel diameter in islet grafts: rapid effect on blood vessel diameters; also recorded: decrease
[3]; transplanted islets in leptin-treated ob/ob mice
  granulation of islet cells (reflective optical properties, backscatter): regranulation
ob/ob mice [4]; after end of leptin treatment, mass similar to untreated ob/ob about one month later
  body weight after the end of the treatment period: rapidly increased
ob/ob mice [4]; daily i.p. leptin 1.5 μg/g between 3 and 4 months of age, during treatment
  body weight: decrease
ob/ob mice [4]; [5]
  blood glucose: decrease
  insulin concentrations (plasma): decrease
ob/ob mice [4]; daily i.p. leptin, during treatment
  appetite: visibly reduced
